Results as given in patent US11174268B2, “Benzenesulfonamide compouds and their use as therapeutic agents” (Xenon Pharmaceuticals Inc., priority 2016, dated 2021).
Counter-ions that a name gives are not always drawn.

Experiments:
NaV1.5 = NaV1.5 (Homo sapiens (Human), UniProt Q14524); test: Sodium Influx Assay (Flux), NaV1.5; conditions: read-out: Flux NaV1.5 IC50; Trex HEK293 cells, ANG2 dye, inactivated state
NaV1.1 = NaV1.1 (Homo sapiens (Human), UniProt P35498); test: Sodium Influx Assay (Flux), NaV1.1; format: cell-based; conditions: Trex HEK293 cells, ANG2 dye, inactivated state;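 also: channels co-expressed with human β1 subunit and held open by modulators, cells exposed to compounds for one hour at room temperature, IC50 from percent inhibition of influx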
NaV1.6 [1] = target: T1, NaV1.6 (Homo sapiens (Human), UniProt Q9UQD0); test: Electrophysiological Assay (EP), patch voltage clamp, NaV1.6; format: cell-based; conditions: HEK-293 cells, whole-cell patch clamp;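 also: sodium current recorded at ambient temperature, channels held inactivated then briefly repolarized to −150 mV for 20 ms before a test pulse, control currents in 0.5% DMSO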
T1 sequence (Q9UQD0 whole entry): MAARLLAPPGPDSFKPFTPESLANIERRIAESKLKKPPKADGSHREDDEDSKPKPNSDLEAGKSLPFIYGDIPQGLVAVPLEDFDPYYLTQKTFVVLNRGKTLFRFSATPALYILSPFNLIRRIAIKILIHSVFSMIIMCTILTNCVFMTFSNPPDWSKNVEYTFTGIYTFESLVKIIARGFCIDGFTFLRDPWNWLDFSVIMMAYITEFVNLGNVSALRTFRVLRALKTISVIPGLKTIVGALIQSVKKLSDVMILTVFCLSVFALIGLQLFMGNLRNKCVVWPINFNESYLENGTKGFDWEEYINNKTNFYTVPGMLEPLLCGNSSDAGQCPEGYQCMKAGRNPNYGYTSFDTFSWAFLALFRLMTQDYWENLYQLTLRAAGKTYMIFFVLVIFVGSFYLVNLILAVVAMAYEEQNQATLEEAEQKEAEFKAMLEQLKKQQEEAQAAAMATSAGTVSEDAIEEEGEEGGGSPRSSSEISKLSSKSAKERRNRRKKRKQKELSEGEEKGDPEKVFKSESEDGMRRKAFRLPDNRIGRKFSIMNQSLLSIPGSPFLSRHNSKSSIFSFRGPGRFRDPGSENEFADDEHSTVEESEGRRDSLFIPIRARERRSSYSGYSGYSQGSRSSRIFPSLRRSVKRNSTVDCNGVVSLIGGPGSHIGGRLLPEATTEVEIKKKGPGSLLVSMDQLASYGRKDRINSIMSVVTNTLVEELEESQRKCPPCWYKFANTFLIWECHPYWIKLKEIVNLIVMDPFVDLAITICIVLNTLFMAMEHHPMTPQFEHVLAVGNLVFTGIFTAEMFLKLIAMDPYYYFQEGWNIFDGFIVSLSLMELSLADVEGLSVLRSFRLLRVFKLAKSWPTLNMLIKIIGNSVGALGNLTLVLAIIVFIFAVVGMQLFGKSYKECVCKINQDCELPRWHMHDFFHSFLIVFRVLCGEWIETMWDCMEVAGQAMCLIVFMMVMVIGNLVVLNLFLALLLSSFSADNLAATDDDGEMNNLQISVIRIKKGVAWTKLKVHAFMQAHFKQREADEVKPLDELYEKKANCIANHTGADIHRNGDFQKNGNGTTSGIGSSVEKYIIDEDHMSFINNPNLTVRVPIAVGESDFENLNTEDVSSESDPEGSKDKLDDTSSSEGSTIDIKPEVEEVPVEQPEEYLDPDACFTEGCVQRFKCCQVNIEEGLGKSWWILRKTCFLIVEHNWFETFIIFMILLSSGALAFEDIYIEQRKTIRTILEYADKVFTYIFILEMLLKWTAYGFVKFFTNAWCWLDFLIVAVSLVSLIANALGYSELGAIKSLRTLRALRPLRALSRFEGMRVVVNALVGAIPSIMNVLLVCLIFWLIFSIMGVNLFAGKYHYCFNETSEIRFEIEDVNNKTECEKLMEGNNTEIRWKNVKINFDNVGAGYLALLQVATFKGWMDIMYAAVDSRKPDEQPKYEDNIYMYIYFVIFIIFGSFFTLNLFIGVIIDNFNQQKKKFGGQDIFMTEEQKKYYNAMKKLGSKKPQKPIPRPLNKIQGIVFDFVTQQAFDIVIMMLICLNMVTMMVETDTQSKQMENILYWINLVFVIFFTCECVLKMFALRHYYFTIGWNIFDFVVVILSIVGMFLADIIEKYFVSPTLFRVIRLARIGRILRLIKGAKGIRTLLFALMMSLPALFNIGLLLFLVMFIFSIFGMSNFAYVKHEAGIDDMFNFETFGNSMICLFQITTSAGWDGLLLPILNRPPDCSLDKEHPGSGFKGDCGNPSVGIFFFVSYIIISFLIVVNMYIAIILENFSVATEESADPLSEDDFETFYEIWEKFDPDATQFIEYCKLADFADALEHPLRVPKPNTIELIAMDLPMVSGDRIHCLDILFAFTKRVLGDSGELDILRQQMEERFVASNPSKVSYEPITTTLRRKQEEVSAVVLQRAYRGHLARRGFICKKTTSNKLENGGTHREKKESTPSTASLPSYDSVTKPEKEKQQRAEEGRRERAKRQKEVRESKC

NaV1.6 [2] = target: T1, NaV1.6; test: Sodium Influx Assay (Flux), NaV1.6; format: cell-based; conditions: Trex HEK293 cells, ANG2 dye, inactivated state;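 also: Tetracycline-induced cells, compounds applied for one hour at room temperature with modulators holding channels open, IC50 from percent inhibition of sodium influx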

Sequence of NaV1.5 (Q14524 other isoform, or with tags, fused parts or gaps): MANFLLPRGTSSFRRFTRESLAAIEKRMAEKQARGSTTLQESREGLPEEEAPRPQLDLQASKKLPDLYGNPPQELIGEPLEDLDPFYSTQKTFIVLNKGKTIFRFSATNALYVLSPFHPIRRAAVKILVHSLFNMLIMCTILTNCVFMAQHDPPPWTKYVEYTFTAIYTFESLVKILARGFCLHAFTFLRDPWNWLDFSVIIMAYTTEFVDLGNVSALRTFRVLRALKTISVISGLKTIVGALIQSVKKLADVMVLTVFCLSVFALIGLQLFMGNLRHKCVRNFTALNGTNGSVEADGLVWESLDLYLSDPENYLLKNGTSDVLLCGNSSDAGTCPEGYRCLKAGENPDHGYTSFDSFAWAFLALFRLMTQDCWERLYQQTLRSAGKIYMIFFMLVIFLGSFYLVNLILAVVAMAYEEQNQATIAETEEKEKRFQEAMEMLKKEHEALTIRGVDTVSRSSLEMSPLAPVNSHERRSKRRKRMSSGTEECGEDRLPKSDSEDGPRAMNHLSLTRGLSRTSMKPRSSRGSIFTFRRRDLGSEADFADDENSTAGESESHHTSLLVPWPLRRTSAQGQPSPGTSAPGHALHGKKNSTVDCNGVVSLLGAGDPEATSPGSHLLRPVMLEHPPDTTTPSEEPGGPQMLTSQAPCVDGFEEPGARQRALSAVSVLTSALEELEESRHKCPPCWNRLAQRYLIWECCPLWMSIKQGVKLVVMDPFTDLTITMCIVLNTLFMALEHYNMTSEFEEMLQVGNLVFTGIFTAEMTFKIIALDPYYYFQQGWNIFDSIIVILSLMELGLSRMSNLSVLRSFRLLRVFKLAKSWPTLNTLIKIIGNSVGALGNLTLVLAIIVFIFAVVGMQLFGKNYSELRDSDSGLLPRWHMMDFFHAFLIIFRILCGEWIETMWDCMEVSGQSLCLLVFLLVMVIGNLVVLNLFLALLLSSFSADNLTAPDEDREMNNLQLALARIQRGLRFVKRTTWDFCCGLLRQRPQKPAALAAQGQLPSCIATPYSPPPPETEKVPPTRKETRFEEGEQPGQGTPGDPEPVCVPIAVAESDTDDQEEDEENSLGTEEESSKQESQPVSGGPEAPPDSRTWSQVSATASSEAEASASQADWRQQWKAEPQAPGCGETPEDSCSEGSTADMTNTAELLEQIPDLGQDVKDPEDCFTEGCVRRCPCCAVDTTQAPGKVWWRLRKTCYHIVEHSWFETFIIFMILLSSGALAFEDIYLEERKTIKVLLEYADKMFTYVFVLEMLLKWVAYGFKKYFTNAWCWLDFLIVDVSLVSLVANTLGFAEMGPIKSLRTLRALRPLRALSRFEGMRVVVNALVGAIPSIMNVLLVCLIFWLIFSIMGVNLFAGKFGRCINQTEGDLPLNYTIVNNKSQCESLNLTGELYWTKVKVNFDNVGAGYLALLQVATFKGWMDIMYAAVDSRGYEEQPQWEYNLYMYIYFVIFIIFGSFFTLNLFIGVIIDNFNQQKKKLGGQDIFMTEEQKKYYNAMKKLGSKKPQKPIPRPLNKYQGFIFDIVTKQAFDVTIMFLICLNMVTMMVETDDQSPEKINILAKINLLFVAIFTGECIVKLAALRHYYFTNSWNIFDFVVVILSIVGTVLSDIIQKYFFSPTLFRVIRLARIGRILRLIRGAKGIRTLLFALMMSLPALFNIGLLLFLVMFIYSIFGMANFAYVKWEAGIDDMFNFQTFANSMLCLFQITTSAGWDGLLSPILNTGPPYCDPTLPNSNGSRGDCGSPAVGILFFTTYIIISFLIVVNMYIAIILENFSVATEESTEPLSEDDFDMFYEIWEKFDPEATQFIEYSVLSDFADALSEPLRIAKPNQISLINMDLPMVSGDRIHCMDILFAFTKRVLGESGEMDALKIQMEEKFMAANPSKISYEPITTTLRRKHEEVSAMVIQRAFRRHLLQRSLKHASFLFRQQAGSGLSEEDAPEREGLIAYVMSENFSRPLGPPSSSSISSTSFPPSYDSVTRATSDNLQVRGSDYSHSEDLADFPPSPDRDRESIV

Molecule	IC50 (NaV1.1) [µM]	IC50 (NaV1.6 [1]) [µM]	IC50 (NaV1.6 [2]) [µM]	IC50 (NaV1.5) [µM]
CC[C@H](Nc1ccc(S(=O)(=O)Nc2ncns2)cc1Cl)c1ccccc1 [Example 32, (S)-3-chloro-4-((1-phenylpropyl)amino)-N-(1,2,4-thiadiazol-5-yl)benzenesulfonamide]	1.06	0.023	0.092	12.8
COC1(C)CN(Cc2cccc(F)c2CNc2cc(F)c(S(=O)(=O)Nc3cscn3)c(F)c2)C1 [Example 172, 2,6-difluoro-4-((2-fluoro-6-((3-methoxy-3-methylazetidin-1-yl)methyl)benzyl)amino)-N-(thiazol-4-yl)benzenesulfonamide formate]	25.8	0.023	0.078	30
O=S(=O)(Nc1ccon1)c1c(F)cc(NCc2c(F)cccc2CN2CCC2)cc1F [Example 204, 4-((2-(azetidin-1-ylmethyl)-6-fluorobenzyl)amino)-2,6-difluoro-N-(isoxazol-3-yl)benzenesulfonamide 2,2,2-trifluoroacetate]	30	0.081	0.187	23.1
O=S(=O)(Nc1cscn1)c1ccc(NCc2c(F)ccc(F)c2CN2CCC2)c(F)c1F [Example 213, 4-((2-(azetidin-1-ylmethyl)-3,6-difluorobenzyl)amino)-2,3-difluoro-N-(thiazol-4-yl)benzenesulfonamide 2,2,2-trifluoroacetate]	30	0.021	0.156	30
Cc1c(NCc2c(F)cccc2CN2CCC2(C)C)ccc(S(=O)(=O)Nc2cscn2)c1F [Example 306, 4-((2-((2,2-dimethylazetidin-1-yl)methyl)-6-fluorobenzyl)amino)-2-fluoro-3-methyl-N-(thiazol-4-yl)benzenesulfonamide]	18.1	–	0.241	8.1
O=S(=O)(Nc1cscn1)c1cc(F)c(NCc2c(F)cccc2CN2CCC2)cc1F [Example 308, 4-((2-(azetidin-1-ylmethyl)-6-fluorobenzyl)amino)-2,5-difluoro-N-(thiazol-4-yl)benzenesulfonamide]	26	–	0.605	26.4
O=S(=O)(Nc1ccncn1)c1c(F)cc(NCc2ccccc2CN2CCC2)cc1F [Example 311, 4-((2-(azetidin-1-ylmethyl)benzyl)amino)-2,6-difluoro-N-(pyrimidin-4-yl)benzenesulfonamide formate]	26.4	–	0.219	30
Cc1cc(NCc2c(F)cccc2CN2CC(C)(C)C2)c(F)c(F)c1S(=O)(=O)Nc1cscn1 [Example 314, 4-((2-((3,3-dimethylazetidin-1-yl)methyl)-6-fluorobenzyl)amino)-2,3-difluoro-6-methyl-N-(thiazol-4-yl)benzenesulfonamide 2,2,2-trifluoroacetate]	30	–	0.032	30
Cc1c(NCc2c(F)cccc2CN2CCC2)ccc(S(=O)(=O)Nc2ccon2)c1F [Example 315, 4-((2-(azetidin-1-ylmethyl)-6-fluorobenzyl)amino)-2-fluoro-N-(isoxazol-3-yl)-3-methylbenzenesulfonamide 2,2,2-trifluoroacetate]	30	–	0.27	30
O=S(=O)(Nc1cnsc1)c1c(F)cc(NCc2c(F)cccc2CN2CCC2)cc1F [Example 318, 4-((2-(azetidin-1-ylmethyl)-6-fluorobenzyl)amino)-2,6-difluoro-N-(isothiazol-4-yl)benzenesulfonamide]	20.4	–	6.03	17.3
O=S(=O)(Nc1cccc(F)n1)c1c(F)cc(NCc2ccccc2CN2CCC2)cc1F [Example 324, 4-((2-(azetidin-1-ylmethyl)benzyl)amino)-2,6-difluoro-N-(6-fluoropyridin-2-yl)benzenesulfonamide]	18.9	–	0.647	30
(R)-5-chloro-2-fluoro-4-((1-(isoquinolin-8-yl)ethyl)amino)-N-(thiazol-2-yl)benzenesulfonamide [Example 13]	30	–	5.89	30
(S)-5-chloro-2-fluoro-4-((1-(isoquinolin-8-yl)ethyl)amino)-N-(thiazol-2-yl)benzenesulfonamide [Example 12]	30	–	1.98	30

Further lines, with some results ahead:

IC50 (NaV1.1) [µM]	IC50 (NaV1.6 [1]) [µM]	IC50 (NaV1.6 [2]) [µM]	Molecule	IC50 (NaV1.5) [µM]
0.516	0.078	0.107	CCC(Nc1cc(F)c(S(=O)(=O)Nc2ncns2)cc1F)c1ccccc1 (stereo not shown) [Example 85, 2,5-difluoro-4-((1-phenylpropyl)amino)-N-(1,2,4-thiadiazol-5-yl)benzenesulfonamide]	30
16.6	0.558	4.06	CCC(Nc1cc(F)c(S(=O)(=O)Nc2cccc(F)n2)cc1Cl)c1ccccc1 (stereo not shown) [Example 86, 5-chloro-2-fluoro-N-(6-fluoropyridin-2-yl)-4-((1-phenylpropyl)amino)benzenesulfonamide]	12.7
9.2	0.012	0.025	O=S(=O)(Nc1ccsn1)c1c(F)cc(NCc2c(F)cccc2CN2CCC2)cc1F [Example 188, 4-((2-(azetidin-1-ylmethyl)-6-fluorobenzyl)amino)-2,6-difluoro-N-(isothiazol-3-yl)benzenesulfonamide 2,2,2-trifluoroacetate]	30
14.2	–	0.057	Cc1c(NCc2ccccc2CN2CCC2(C)C)cc(F)c(S(=O)(=O)Nc2cscn2)c1F [Example 305, 4-((2-((2,2-dimethylazetidin-1-yl)methyl)benzyl)amino)-2,6-difluoro-3-methyl-N-(thiazol-4-yl)benzenesulfonamide 2,2,2-trifluoroacetate]	30
6.34	–	0.085	O=S(=O)(Nc1cscn1)c1c(F)cc(NCc2c(Cl)ccc(F)c2CN2CCC2)cc1F [Example 309, 4-((2-(azetidin-1-ylmethyl)-6-chloro-3-fluorobenzyl)amino)-2,6-difluoro-N-(thiazol-4-yl)benzenesulfonamide 2,2,2-trifluoroacetate]	27.6
7.26	–	0.135	Cc1cc(NCc2ccccc2CN2CCC2)c(F)c(F)c1S(=O)(=O)Nc1cscn1 [Example 312, 4-((2-(azetidin-1-ylmethyl)benzyl)amino)-2,3-difluoro-6-methyl-N-(thiazol-4-yl)benzenesulfonamide 2,2,2-trifluoroacetate]	9.59
3.75	–	0.014	Cc1c(NCc2c(Cl)ccc(F)c2CN2CCC2)cc(F)c(S(=O)(=O)Nc2cscn2)c1F [Example 313, 4-((2-(azetidin-1-ylmethyl)-6-chloro-3-fluorobenzyl)amino)-2,6-difluoro-3-methyl-N-(thiazol-4-yl)benzenesulfonamide 2,2,2-trifluoroacetate]	14.3
18	–	2.31	O=S(=O)(Nc1cscn1)c1c(F)cc(NCc2ccccc2CCN2CC(F)(F)C2)cc1F [Example 319, 4-((2-(2-(3,3-difluoroazetidin-1-yl)ethyl)benzyl)amino)-2,6-difluoro-N-(thiazol-4-yl)benzenesulfonamide]	20
6.5	–	0.055	O=S(=O)(Nc1cscn1)c1c(F)cc(NCc2ccccc2CCN2CC(F)C2)cc1F [Example 320, 4-((2-(2-(3-fluoroazetidin-1-yl)ethyl)benzyl)amino)-2,6-difluoro-N-(thiazol-4-yl)benzenesulfonamide formate]	17.9
4.77	–	0.091	O=S(=O)(Nc1cscn1)c1cc(Cl)c(N[C@@H]2C[C@H](N3CCC3)c3ccccc32)cc1F [Example 321, 4-(((1R,3S)-3-(azetidin-1-yl)-2,3-dihydro-1H-inden-1-yl)amino)-5-chloro-2-fluoro-N-(thiazol-4-yl)benzenesulfonamide formate]	28.1
9.38	–	0.518	C=Cc1cc(S(=O)(=O)Nc2cscn2)c(F)cc1NCc1ccccc1CN1CCC1 [Example 323, 4-((2-(azetidin-1-ylmethyl)benzyl)amino)-2-fluoro-N-(thiazol-4-yl)-5-vinylbenzenesulfonamide formate]	15
8.12	–	0.214	Cc1cc(S(=O)(=O)Nc2cccc(F)n2)c(F)cc1NCc1ccccc1CN1CCC1 [Example 329, 4-((2-(azetidin-1-ylmethyl)benzyl)amino)-2-fluoro-N-(6-fluoropyridin-2-yl)-5-methylbenzenesulfonamide]	28.4
0.831	–	0.275	O=S(=O)(Nc1nccs1)c1cc(Cl)c(N[C@H](c2ccccc2F)C(F)(F)F)cc1F [Example 332, (R)-5-chloro-2-fluoro-N-(thiazol-2-yl)-4-((2,2,2-trifluoro-1-(2-fluorophenyl)ethyl)amino)benzenesulfonamide]	7.24
14.3	–	0.266	CC1(F)CN(Cc2cccc(F)c2CNc2cc(F)c(S(=O)(=O)Nc3ccon3)c(F)c2)C1 [Example 337, 2,6-difluoro-4-((2-fluoro-6-((3-fluoro-3-methylazetidin-1-yl)methyl)benzyl)amino)-N-(isoxazol-3-yl)benzenesulfonamide formate]	30
5.71	–	1.62	CC[C@H](Oc1cc(F)c(S(=O)(=O)Nc2cscn2)cc1Cl)c1ccccc1F [Example 338, (S)-5-chloro-2-fluoro-4-(1-(2-fluorophenyl)propoxy)-N-(thiazol-4-yl)benzenesulfonamide]	2.65
